Here are results for four compounds from ChEMBL document CHEMBL3244077, “Sycnthesis of quinazoline analogues of folic acid modified at postion 10” (J Med Chem, 1977).

In data set [1] the test system is L1210. Nature of the data set: Antitumor activity against mouse L1210 cells allografted in mouse assessed as increase in host survival at 100 mg/kg, ip administered as single dose on day 1 following tumor implantation. It counts as functional. Conditions: 24 h, route intraperitoneal.
Data set [2] has as its system L1210. The experiment in a line: Antitumor activity against mouse L1210 cells allografted in mouse assessed as increase in host survival at 150 mg/kg, ip administered as single dose on day 1 following tumor implantation. Conditions: 24 h, route intraperitoneal. The format is functional.
The test system of data set [3] is Mus musculus. The experiment in a line: Acute toxicity in mouse […] with mouse L1210 cells at 150 mg/kg, ip administered as single dose on day 1 following tumor implantation. The format is organism-based. The arrangement: dose 150 mg/kg, route intraperitoneal. Conditions: in vivo.
In data set [4] the test system is L1210. Nature of the data set: Antitumor activity against mouse L1210 cells allografted in mouse assessed as increase in host survival at 75 mg/kg, ip administered as single dose on day 1 following tumor implantation. The format is functional. Conditions: 24 h, route intraperitoneal.
Data set [5] relates to L1210. The experiment in a line: Antitumor activity against mouse L1210 cells allografted in mouse assessed as increase in host survival at 200 mg/kg, ip administered as single dose on day 1 following tumor implantation. The format is functional. Conditions: 24 h, route intraperitoneal.
The subject of data set [6] is L1210. The experiment in a line: Antitumor activity against mouse L1210 cells allografted in mouse assessed as increase in host survival at 50 mg/kg, ip administered as single dose on day 1 following tumor implantation. The format is functional. Conditions: 24 h, route intraperitoneal.
Data set [7] concerns L1210. Nature of the data set: Antitumor activity against mouse L1210 cells allografted in mouse assessed as increase in host survival at 25 mg/kg, ip administered as single dose on day 1 following tumor implantation. It counts as functional. Conditions: 24 h, route intraperitoneal.

Regarding `Nc1nc(O)c2cc(CSc3ccc(C(=O)N[C@@H](CCC(=O)O)C(=O)O)cc3)ccc2n1`, in data set [1], the survival at 100 mg/kg turned out to be 9%. Further, the survival at 150 mg/kg in data set [2] came to 22%. Further, in data set [3], the Activity result is “Non-toxic”.

Take `Nc1nc(O)c2cc(COc3ccc(C(=O)N[C@@H](CCC(=O)O)C(=O)O)cc3)ccc2n1`: the survival at 75 mg/kg in data set [4] came to 6%. Further, in data set [2], the survival at 150 mg/kg was found to be 28%. The survival at 200 mg/kg in data set [5] amounted to 14%. For the same compound, in data set [3], the Activity result is on record as “Non-toxic”.

Turning to `Nc1nc(O)c2cc(CCc3ccc(C(=O)N[C@@H](CCC(=O)O)C(=O)O)cc3)ccc2n1`, the survival at 50 mg/kg in data set [6] turned out to be 14%. Besides, in data set [4], the survival at 75 mg/kg was 18%. Moreover, the survival at 150 mg/kg in data set [2] worked out at 23%. In addition, the Activity result in data set [3] is given as “Non-toxic”.

For `CN(Cc1cnc2nc(N)nc(N)c2n1)c1ccc(C(=O)N[C@@H](CCC(=O)O)C(=O)O)cc1` [METHOTREXATE], the survival at 25 mg/kg in data set [7] was found to be 68%. In data set [6], the survival at 50 mg/kg stood at 61%. Besides, the survival at 75 mg/kg in data set [4] turned out to be 48%. Further, the survival at 100 mg/kg in data set [1] came out at 81%.
